Assay results taken from PubChem BioAssay AID488792 (NMMLSC, 2010).
Calls of active or inactive are those of the source.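 The calls were made as follows: active = EC50 at or below 33 microM; inactive = the rest.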

Each compound was assayed on S. cerevisiae AGP1-GFP strain, flow cytometry fluorescence, 3 h (assay: yeast AGP1-GFP modulation, KU SAR set, cell-based, flow cytometry, S. cerevisiae, SAR follow-up (AID 488792)).

Structure (SMILES)	EC50
O=C(Oc1c(Cl)cc(Cl)c2cccnc12)c1cccc([N+](=O)[O-])c1	34.8 µM (inactive)
C/C(=N\NC(=O)c1cccc(Br)c1)c1ccccn1	34.1 µM (inactive)
CC(C)(C)C(=O)C(Cl)C(=O)Nc1ccccc1 (stereo not given)	2.09 µM
CC(C)(C)n1nc(-c2ccc(F)cc2)c2c(N)ncnc21	174 µM (inactive)
CC(Oc1ccc(Br)cc1)C(=O)Nc1nc(-c2ccccn2)cs1 (stereo not given)	102 µM (inactive)
CCC(C)Nc1nc(N)c([N+](=O)[O-])c(Nc2cccc(F)c2)n1 (stereo not given)	63.1 µM (inactive)
O=[N+]([O-])c1cc(O)c2ncccc2c1	34.3 µM (inactive)
CC(C)(C)C(=O)NC(=S)NNC(=O)c1ccc(-c2ccccc2)cc1	34.5 µM (inactive)
CC(=O)Nc1ncnc2c1c(-c1ccc(Cl)cc1)nn2C(C)(C)C	137 µM (inactive)
Nc1nc(Nc2cccc(Cl)c2)nc(Nc2cccc(F)c2)c1[N+](=O)[O-]	312 µM (inactive)
Cc1cc(C(=O)Nc2nc(-c3ccccn3)cs2)ccc1[N+](=O)[O-]	57.5 µM (inactive)
CC(=O)SC(C[N+](=O)[O-])c1cn(C(C)=O)c2ccccc12 (stereo not given)	60.4 µM (inactive)
COc1cccc(Nc2nc(N)c([N+](=O)[O-])c(Nc3cccc(F)c3)n2)c1	35 µM (inactive)
Cc1ccc(-c2nn(C(C)(C)C)c3ncnc(N)c23)cc1	300 µM (inactive)
O=[N+]([O-])c1ccc(O)c2ncccc12	5.98 µM
O=C(c1ccc(C(=O)N2CCCc3ccccc32)s1)N1CCCc2ccccc21	0.46 µM
CC(C)(C)n1nc(-c2ccc(Cl)cc2)c2c(N)ncnc21	10.8 µM
CNc1nc(N)c([N+](=O)[O-])c(Nc2cccc(F)c2)n1	10.7 µM

Structure (SMILES)	EC50
O=C(Nc1nc(-c2ccccn2)cs1)C1COc2ccccc2O1 (stereo not given)	72.9 µM (inactive)
Cc1ccc2nc(Cl)c3nnnn3c2c1	0.24 µM
O=C(OCC(=O)N1CCN(C(=O)c2ccco2)CC1)c1cc(-c2ccc(F)cc2)nc2ccccc12	1.25 µM
Nc1nc(Nc2ccccc2)nc(Nc2cccc(F)c2)c1[N+](=O)[O-]	140 µM (inactive)
CCOC(=O)CCS(=O)(=O)c1nc(-c2ccccc2)cc(C(F)(F)F)n1	1.41 µM
O=[N+]([O-])c1cc(Cl)c2cccnc2c1O	62 µM (inactive)
COC(=O)CCS(=O)(=O)c1nc(-c2ccccc2)cc(C(F)(F)F)n1	0.3 µM
CCOC(=O)CS(=O)(=O)c1nc(-c2ccccc2)cc(C(F)(F)F)n1	1.74 µM
Cc1ccc(C(c2cc(Cl)c3cccnc3c2O)N2CCN(C)CC2)cc1 (stereo not given)	98.6 µM (inactive)
CN1CCN(C(=O)c2cc(COc3c(F)cccc3F)on2)CC1c1ccccc1 (stereo not given)	14.1 µM
Cn1ncc(S(=O)(=O)Cc2ccccc2)c(Cl)c1=O	105 µM (inactive)
O=C(OCC(=O)N1CCN(C(=O)c2ccco2)CC1)c1cc(-c2cccc(Br)c2)nc2ccccc12	36.5 µM (inactive)
Cc1ccc(S(=O)(=O)c2ccc([N+](=O)[O-])cn2)cc1	4.42 µM
CCN(CC)C(=O)Oc1ccnc2cc(Cl)ccc12	32.2 µM
CC(=O)c1ccc(N2CCN(C(=O)c3ccc(Br)cc3)CC2)c(F)c1	4.22 µM
Nc1cc(Oc2cccc(Cl)c2)nc(NCc2ccccc2)n1	263 µM (inactive)
O=C(OCn1ncc(Br)c(Br)c1=O)c1c(F)cccc1F	2.44 µM
